According to ChEMBL document CHEMBL1147662, “Biarylaniline phenethanolamines as potent and selective beta3 adrenergic receptor agonists” (J Med Chem, 2006):

Legend:
[1] = target: Beta-3 adrenergic receptor (Homo sapiens, UniProt P13945)
Description: Activity at human beta-3 adrenergic receptor expressed in CHO cells by stimulation of cAMP production

[2] = target: T1, Beta-2 adrenergic receptor (Homo sapiens, UniProt P07550)
Description: Activity at human beta-2 adrenergic receptor expressed in CHO cells by stimulation of cAMP production

[3] = target: T2, Beta-1 adrenergic receptor (Homo sapiens, UniProt P08588)
Description: Activity at human beta-1 adrenergic receptor expressed in CHO cells by stimulation of cAMP production

[4] = Volume of distribution in Beagle dog; type: ADME, organism-based, Canis lupus familiaris; conditions: in vivo, read-out: Vss
[5] = Half life in po dosed Beagle dog; type: ADME, organism-based, Canis lupus familiaris; conditions: in vivo
[6] = Bioavailability in Beagle dog; type: ADME, organism-based, Canis lupus familiaris; conditions: in vivo
[7] = AUC(0-infinity) in po dosed Beagle dog; type: ADME, organism-based, Canis lupus familiaris; set-up: time infinity, route oral; conditions: plasma
[8] = Clearance in Beagle dog; type: ADME, organism-based, Canis lupus familiaris; conditions: in vivo
[9] = system: Mus musculus; test: Decrease in plasma glucose level in db/db mouse at 0.01 mg/kg, po after 14 days; type: functional
[10] = system: Mus musculus; test: Decrease in plasma glucose level in db/db mouse at 0.1 mg/kg, po after 14 days; type: functional
[11] = system: Mus musculus; test: Decrease in plasma glucose level in db/db mouse at 1 mg/kg, po after 14 days; type: functional
[12] = system: Mus musculus; test: Decrease in glycosylated hemoglobin in db/db mouse at 0.01 mg/kg, po after 14 days; type: functional; set-up: scale not given: the % may be the effect or the level left
[13] = system: Mus musculus; test: Decrease in glycosylated hemoglobin in db/db mouse at 0.1 mg/kg, po after 14 days; type: functional; set-up: scale not given: the % may be the effect or the level left
[14] = system: Mus musculus; test: Decrease in glycosylated hemoglobin in db/db mouse at 1 mg/kg, po after 14 days; type: functional; set-up: scale not given: the % may be the effect or the level left
[15] = system: Mus musculus; test: Decrease in plasma insulin level in db/db mouse at 0.01 mg/kg, po after 14 days; type: functional
[16] = system: Mus musculus; test: Decrease in plasma insulin level in db/db mouse at 0.1 mg/kg, po after 14 days; type: functional
[17] = system: Mus musculus; test: Decrease in plasma insulin level in db/db mouse at 1 mg/kg, po after 14 days; type: functional
[18] = system: Mus musculus; test: Increase of thermogenic activity in CD1 mouse at 3 mg/kg; type: functional, organism-based; set-up: dose 3 mg/kg
[19] = system: Mus musculus; test: Increase of thermogenic activity in CD1 mouse at 10 mg/kg; type: functional, organism-based; set-up: dose 10 mg/kg
[20] = system: Mus musculus; test: Decrease in plasma glucose level in db/db mouse at 10 mg/kg, po after 14 days; type: functional
[21] = system: Mus musculus; test: Decrease in plasma glucose level in db/db mouse at 30 mg/kg, po after 14 days; type: functional
[22] = system: Mus musculus; test: Decrease in plasma glucose level in db/db mouse at 100 mg/kg, po after 14 days; type: functional
[23] = system: Mus musculus; test: Decrease in glycosylated hemoglobin in db/db mouse at 10 mg/kg, po after 14 days; type: functional; set-up: scale not given: the % may be the effect or the level left
[24] = system: Mus musculus; test: Decrease in glycosylated hemoglobin in db/db mouse at 30 mg/kg, po after 14 days; type: functional; set-up: scale not given: the % may be the effect or the level left
[25] = system: Mus musculus; test: Decrease in glycosylated hemoglobin in db/db mouse at 100 mg/kg, po after 14 days; type: functional; set-up: scale not given: the % may be the effect or the level left
[26] = system: Mus musculus; test: Decrease in plasma insulin level in db/db mouse at 10 mg/kg, po after 14 days; type: functional
[27] = system: Mus musculus; test: Decrease in plasma insulin level in db/db mouse at 30 mg/kg, po after 14 days; type: functional
[28] = system: Mus musculus; test: Decrease in plasma insulin level in db/db mouse at 100 mg/kg, po after 14 days; type: functional
[29] = system: Mus musculus; test: Increase of thermogenic activity in CD1 mouse at 30 mg/kg; type: functional, organism-based; set-up: dose 30 mg/kg
[30] = Clearance in Wistar Han rat at 1 mg/kg, iv or 1 mg/kg, po; type: ADME, organism-based; conditions: in vivo
[31] = Renal clearance in Wistar Han rat at 1 mg/kg, iv or 1 mg/kg, po; type: ADME, organism-based, Kidney; conditions: in vivo, read-out: CL_renal
[32] = Volume of distribution in Wistar Han rat at 1 mg/kg, iv or 1 mg/kg, po; type: ADME, organism-based; conditions: in vivo, read-out: Vss
[33] = Half life in Wistar Han rat at 1 mg/kg, iv; type: ADME, organism-based; set-up: dose 1 mg/kg, route intravenous; conditions: in vivo
[34] = Half life in Wistar Han rat at 1 mg/kg, po; type: ADME, organism-based; set-up: dose 1 mg/kg, route oral; conditions: in vivo
[35] = Bioavailability in Wistar Han rat at 1 mg/kg, po and 1 mg/kg, iv; type: ADME, organism-based; conditions: in vivo
[36] = Renal clearance in Beagle dog; type: ADME, organism-based, Canis lupus familiaris, Kidney; conditions: in vivo, read-out: CL_renal
[37] = Half life in Beagle dog at 0.2 mg/kg, iv; type: ADME, organism-based, Canis lupus familiaris; set-up: dose 0.2 mg/kg, route intravenous; conditions: in vivo
[38] = Clearance in cynomolgus monkey; type: ADME, organism-based, Macaca fascicularis; conditions: in vivo
[39] = Volume of distribution in cynomolgus monkey; type: ADME, organism-based, Macaca fascicularis; conditions: in vivo, read-out: Vss
[40] = Half life in iv dosed cynomolgus monkey; type: ADME, organism-based, Macaca fascicularis; conditions: in vivo
[41] = Half life in po dosed cynomolgus monkey; type: ADME, organism-based, Macaca fascicularis; conditions: in vivo
[42] = target: T1, Beta-2 adrenergic receptor; test: Displacement of [125I]cyanopindolol from human cloned beta-2 adrenergic receptor expressed in Sf9 cells
[43] = target: Beta-2 adrenergic receptor and beta-3 adrenergic receptor (Homo sapiens, UniProt P07550+P13945); test: Ratio of pEC50 for human beta-3 adrenergic receptor to pKi for human beta2 adrenergic receptor; type: functional
[44] = target: T2, Beta-1 adrenergic receptor; test: Displacement of [125I]cyanopindolol from human cloned beta-1 adrenergic receptor expressed in Sf9 cells
[45] = system: Mus musculus; test: Decrease in plasma glucose level in db/db mouse at 0.03 mg/kg, po after 14 days; type: functional
[46] = system: Mus musculus; test: Decrease in plasma glucose level in db/db mouse at 0.3 mg/kg, po after 14 days; type: functional
[47] = system: Mus musculus; test: Decrease in plasma glucose level in db/db mouse at 3 mg/kg, po after 14 days; type: functional
[48] = system: Mus musculus; test: Decrease in glycosylated hemoglobin in db/db mouse at 0.03 mg/kg, po after 14 days; type: functional; set-up: scale not given: the % may be the effect or the level left
[49] = system: Mus musculus; test: Decrease in glycosylated hemoglobin in db/db mouse at 3 mg/kg, po after 14 days; type: functional; set-up: scale not given: the % may be the effect or the level left
[50] = system: Mus musculus; test: Decrease in plasma insulin level in db/db mouse at 0.03 mg/kg, po after 14 days; type: functional
[51] = system: Mus musculus; test: Decrease in plasma insulin level in db/db mouse at 0.3 mg/kg, po after 14 days; type: functional
[52] = system: Mus musculus; test: Decrease in plasma insulin level in db/db mouse at 3 mg/kg, po after 14 days; type: functional
[53] = system: Mus musculus; test: Decrease in glycosylated hemoglobin in db/db mouse at 0.3 mg/kg, po after 14 days; type: functional; set-up: scale not given: the % may be the effect or the level left

T1 sequence (P07550 whole entry): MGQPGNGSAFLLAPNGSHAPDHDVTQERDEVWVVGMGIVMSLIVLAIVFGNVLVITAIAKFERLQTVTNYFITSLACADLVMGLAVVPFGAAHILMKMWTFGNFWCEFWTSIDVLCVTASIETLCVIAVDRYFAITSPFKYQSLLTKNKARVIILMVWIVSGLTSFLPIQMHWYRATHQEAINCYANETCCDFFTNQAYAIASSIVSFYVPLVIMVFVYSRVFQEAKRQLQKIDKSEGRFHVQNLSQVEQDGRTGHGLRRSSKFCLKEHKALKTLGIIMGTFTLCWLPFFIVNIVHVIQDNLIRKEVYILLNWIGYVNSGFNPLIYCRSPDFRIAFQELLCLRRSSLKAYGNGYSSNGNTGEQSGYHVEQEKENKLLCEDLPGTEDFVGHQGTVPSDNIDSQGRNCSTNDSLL
T2 sequence (P08588 whole entry): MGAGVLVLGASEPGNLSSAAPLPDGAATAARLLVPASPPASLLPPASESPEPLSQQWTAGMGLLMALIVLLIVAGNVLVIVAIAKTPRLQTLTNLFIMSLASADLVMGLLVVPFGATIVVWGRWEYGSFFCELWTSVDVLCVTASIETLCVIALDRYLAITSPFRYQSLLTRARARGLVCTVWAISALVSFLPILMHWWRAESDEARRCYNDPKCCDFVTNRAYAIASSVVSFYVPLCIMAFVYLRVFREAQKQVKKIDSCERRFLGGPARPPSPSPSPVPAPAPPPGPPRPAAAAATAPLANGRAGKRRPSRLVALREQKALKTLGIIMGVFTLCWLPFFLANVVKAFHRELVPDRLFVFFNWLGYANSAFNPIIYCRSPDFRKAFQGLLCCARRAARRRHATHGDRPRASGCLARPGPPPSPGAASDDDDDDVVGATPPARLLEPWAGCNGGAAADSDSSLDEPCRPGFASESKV
Chain of Beta-3 adrenergic receptor (P13945 whole entry): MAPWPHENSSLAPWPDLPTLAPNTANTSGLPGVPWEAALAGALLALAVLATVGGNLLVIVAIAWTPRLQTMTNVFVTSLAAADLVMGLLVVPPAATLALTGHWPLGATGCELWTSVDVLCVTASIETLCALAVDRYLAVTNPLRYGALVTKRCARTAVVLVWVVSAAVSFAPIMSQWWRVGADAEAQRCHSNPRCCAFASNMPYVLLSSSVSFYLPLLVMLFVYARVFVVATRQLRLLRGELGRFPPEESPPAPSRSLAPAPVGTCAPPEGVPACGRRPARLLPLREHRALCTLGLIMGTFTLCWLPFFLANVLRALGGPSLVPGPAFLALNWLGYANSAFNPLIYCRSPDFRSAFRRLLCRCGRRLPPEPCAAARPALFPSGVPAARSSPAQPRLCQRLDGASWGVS

O=C(O)c1cncc(-c2cccc(NCCNC[C@H](O)c3cccc(Cl)c3)c2)c1
EC50 [1]: 63.1 nM
EC50 [2]: 3980 nM
EC50 [3]: 3160 nM

C[C@H](CNc1cccc(-c2ccc(C(=O)O)cc2)c1)NC[C@H](O)c1cccc(Cl)c1
EC50 [1]: 31.6 nM
EC50 [2]: 1580 nM
EC50 [3]: 794 nM

Cc1ccc(C(=O)O)cc1-c1cccc(NCCNC[C@H](O)c2cccc(Cl)c2)c1
Vd [4]: 1.37 L/kg
half-life [5]: 2.4 h
bioavailability [6]: 37%
AUC(0-inf) [7]: 173 ng·h/mL
clearance [8]: 7.1 mL/min/kg
EC50 [1]: 1.58 nM
EC50 [2]: 631 nM
EC50 [3]: 794 nM

COC(=O)c1cccc(-c2cccc(NCCNC[C@H](O)c3cccc(Cl)c3)c2)c1
EC50 [1]: 158 nM
EC50 [2]: 501 nM
EC50 [3]: 1260 nM

O=C(O)c1ccncc1-c1cccc(NCCNC[C@H](O)c2cccc(Cl)c2)c1
Vd [4]: 0.33 L/kg
half-life [5]: 1.7 h
bioavailability [6]: 27%
plasma glucose [9]: 351 mg/dL
plasma glucose [10]: 181 mg/dL
plasma glucose [11]: 180 mg/dL
Activity [12]: 5.6%
Activity [13]: 5%
Activity [14]: 4.8%
Activity [15]: 11.4 ng/mL
Activity [16]: 2.8 ng/mL
Activity [17]: 1.4 ng/mL
AUC(0-inf) [7]: 161 ng·h/mL
clearance [8]: 5.64 mL/min/kg
EC50 [1]: 0.1 nM
EC50 [2]: > 10000 nM
EC50 [3]: 10000 nM

C[C@H](CNc1cccc(-c2ccc(C(=O)O)cc2C(=O)O)c1)NC[C@H](O)c1cccc(Cl)c1
Vd [4]: 0.99 L/kg
clearance [8]: 9.3 mL/min/kg
EC50 [1]: 0.2 nM
EC50 [2]: > 10000 nM
EC50 [3]: 2510 nM

O=C(O)c1cccc(-c2cccc(NCCNC[C@H](O)c3cccc(Cl)c3)c2)n1
EC50 [1]: 39.8 nM
EC50 [2]: 10000 nM
EC50 [3]: 5010 nM

C[C@H](CNc1cccc(-c2ncccc2C(=O)O)c1)NC[C@H](O)c1cccc(Cl)c1
EC50 [1]: 31.6 nM
EC50 [2]: 1580 nM
EC50 [3]: 794 nM

O=C(O)c1cccc(-c2cccc(NCCNC[C@H](O)c3cccc(Cl)c3)c2)c1 [SOLABEGRON]
Activity [18]: Dose-dependent effect
Activity [19]: Dose-dependent effect
Vd [4]: 0.34 L/kg
half-life [5]: 5 h
bioavailability [6]: 43%
plasma glucose [20]: 384 mg/dL
plasma glucose [21]: 207 mg/dL
plasma glucose [22]: 185 mg/dL
Activity [23]: 7.3%
Activity [24]: 7.6%
Activity [25]: 7.06%
Activity [26]: 6.3 ng/mL
Activity [27]: 4.4 ng/mL
Activity [28]: 0.9 ng/mL
Activity [29]: Dose-dependent effect
AUC(0-inf) [7]: 595 ng·h/mL
clearance [8]: 2.4 mL/min/kg
clearance [30]: 18.1 mL/min/kg
CL renal [31]: 0.16 mL/min/kg
Vd [32]: 1.3 L/kg
half-life [33]: 2.1 h
half-life [34]: 3 h
bioavailability [35]: 30%
CL renal [36]: 0.014 mL/min/kg
half-life [37]: 3.3 h
clearance [38]: 5.5 mL/min/kg
Vd [39]: 0.556 L/kg
half-life [40]: 4.5 h
half-life [41]: 5.2 h
Ki [42]: 1580 nM
Ratio [43]: 398
Ki [44]: 398 nM
EC50 [1]: 3.98 nM
EC50 [2]: 1260 nM
EC50 [3]: 3980 nM

C[C@H](CNc1cccc(-c2ccccc2C(=O)O)c1)NC[C@H](O)c1cccc(Cl)c1
Vd [4]: 0.37 L/kg
half-life [5]: 2.4 h
bioavailability [6]: 40%
plasma glucose [45]: 417 mg/dL
plasma glucose [46]: 238 mg/dL
plasma glucose [47]: 222 mg/dL
Activity [48]: 7.2%
Activity [49]: 5.4%
Activity [50]: 13.7 ng/mL
Activity [51]: 6.7 ng/mL
Activity [52]: 3 ng/mL
Activity [53]: 5.7%
AUC(0-inf) [7]: 310 ng·h/mL
clearance [8]: 11.3 mL/min/kg
EC50 [1]: 0.251 nM
EC50 [2]: 1000 nM
EC50 [3]: 631 nM

C[C@H](CNc1cccc(-c2cccc(C(=O)O)c2)c1)NC[C@H](O)c1cccc(Cl)c1
Vd [4]: 0.45 L/kg
half-life [5]: 2.5 h
bioavailability [6]: 28%
AUC(0-inf) [7]: 135 ng·h/mL
clearance [8]: 7.3 mL/min/kg
EC50 [1]: 0.1 nM
EC50 [2]: 50.1 nM
EC50 [3]: 6.31 nM
